Measured values published in US9581587B2, “Sperm staining and sorting methods” (INGURAN, LLC, priority 2011, dated 2017).

Tests used:
[1] = tested on: membrane compromised sperm; assay: Added dead quenching capacity from bivariate plots (Example 10, FIG. 8); type: cell-based, bulls; settings: with 25 μM yellow food dye No. 6, red food dye No. 4 at highest tested concentration
Protocol: (§1) Eight bulls were collected, including 4 Jersey bulls, 3 Holstein bulls and one mixed dairy-breed. The ejaculates were collected at concentrations ranging from 1700×10^6 sperm/ml to 1100×10^6 sperm/ml and all had progressive motility of a least 60%.
Sperm from each bull was extended to 160 million per ml with a first buffer, (TALP described in table 1 at a pH 7.4) and stained with 64 μM (164/2 mL) Hoechst 33342 at 34° C. Additionally, Phenol Red, Red Food Dye No. 2, Red Food Dye No. 3, and Red Food Dye No. 4, were each tested as split enhancing dyes in the first buffer at concentrations of 15 μM, 45 μM and 125 μM. For each bull, each concentration of each dye was incubated for periods of 30 minutes, 45 minutes, 60 minutes, and 75 minutes were utilized before a second buffer with an additional dye was applied. […]
Sorting was performed on a MoFlo SX (Beckman Coulter, USA) in substantially the same manner described in Example 5. After calibration, screen shots of sorting histograms were taken and split quality was measured by peak to valley ratios in the same way described in Example 5 with reference to FIG. 4 and the resulting data, averaged over all 8 bulls, is found in Tables 18-21. […]

[2] = tested on: sperm; assay: Split quality, split enhancing dyes at various concentrations and incubation times (Example 10); type: cell-based, bulls; settings: for split enhancing effect compared to control: 15, 45, 125 μM, 30-75 minutes, averaged over 8 bulls; for peak to valley ratio, Average 8 bulls: 25 μM yellow food dye No. 6
Protocol: as §1
Sperm from each bull was extended to 160 million per ml with a first buffer, (TALP described in table 1 at a pH 7.4) and stained with 64 μM (164/2 mL) Hoechst 33342 at 34° C. Additionally, Phenol Red, Red Food Dye No. 2, Red Food Dye No. 3, and Red Food Dye No. 4, were each tested as split enhancing dyes in the first buffer at concentrations of 15 μM, 45 μM and 125 μM. For each bull, each concentration of each dye was incubated for periods of 30 minutes, 45 minutes, 60 minutes, and 75 minutes were utilized before a second buffer with an additional dye was applied.
Each sample was then extended in an equal volume of a second buffer which comprised a 5.5 pH modified TALP having 25 μM yellow food dye No. 6 (acting as a dead quenching dye) in addition to the split enhancing dye provided in the first buffer. The second buffer was applied to every sample at 30 minutes, 45 minutes, 60 minutes, and 75 minutes. A control was additionally taken without any split enhancing dye for every bull at every time interval.
Sorting was performed on a MoFlo SX (Beckman Coulter, USA) in substantially the same manner described in Example 5. After calibration, screen shots of sorting histograms were taken and split quality was measured by peak to valley ratios in the same way described in Example 5 with reference to FIG. 4 and the resulting data, averaged over all 8 bulls, is found in Tables 18-21. Additionally, screen shots of bivariate plots were taken to measure the added dead quenching capacity of the mixed dead quenching and split enhancing dyes.

[3] = tested on: sperm; assay: Split quality, red food dye No. 3 as added split enhancing dye (Example 9); type: cell-based, bull; settings: with yellow food dye No. 6 or red food dye No. 40 as dead quenching dye
Protocol: A single bull was collected for the Example 9 in the same way described in Example 5. […] The second buffer was additionally treated with concentrations of 25, 50, 100, 150, 300, or 600 μM of red food dye No. 3, as indicated in Table 6. Sorting was performed on a MoFlo SX (Beckman Coulter, USA) in substantially the same manner described in Example 6. After calibration, screen shots of sorting histograms were taken and the split quality was measured in terms of peak to valley ratios in the same way described in Example 5 with reference to FIG. 4 and the resulting data is found in Table 17.

[4] = tested on: sperm; assay: Split quality PV (Example 6); type: cell-based, Jersey bull; settings: Hoechst 12 μL/2 mL, resulting pH 6.70
Protocol: (§2) A single Jersey bull was collected at an initial sperm concentration 1810×10^6 sperm/ml in a volume of 3.9 ml. The progressive motility of the sperm was 65% with normal morphologies greater than 50%.
(§3) Sperm were suspended at 320 million per mL in 30 mL a first buffer, (TALP described in table 1 at a pH 7.4) with 12 μL of Hoechst 33342 per 2 mL (48 μM) of stain and incubated for 1 hour at 34° C. Stained sperm was then placed as 1 mL aliquots in sample tubes and a 1 mL volume of the appropriate TALP was added. The same second buffer was used as example 1, namely a modified 5.60 pH TALP.
(§4) Each of the stained samples was sorted on a MoFlo SX (Beckman Coulter, USA) as described in Example 6. Screen shots were taken and the dead gate intensity and the split quality were measured in the same way described in Example 1 and recorded in TABLE 14.

[5] = tested on: membrane compromised sperm; assay: Dead gate intensity, yellow 5 and phenol red at higher concentrations (Example 6); type: cell-based, Jersey bull; settings: for Intensity: Hoechst 12 μL/2 mL
Protocol: as §2, §3, §4

[6] = tested on: membrane compromised sperm; assay: Dead gate intensity divided by live gate intensity, flow cytometer (Example 5); type: cell-based
Protocol: (§5) A single Jersey bull was collected at an initial sperm concentration 1900×10^6 sperm/ml in a volume of 5 ml. The progressive motility of the sperm was 65% with normal morphologies greater than 65%.
(§6) The entire ejaculate of sperm was suspended in first staining buffer, specifically a 7.4 pH TALP described in TABLE 1, to a concentration of 160×10^6 sperm per mL (determined on nucleocounter) and divided into three aliquots of about 20 mL into 50 mL Falcon tubes and pre-warmed for 10 minutes at 34° C. The DNA selective fluorescent dye, Hoechst 33342, was added and samples were held at 34° C. for 60 minutes. 3 different Hoechst 33342 Stain Levels were used=12 μL, 14 μL and 16 μL per 2 mL (effective concentrations of 48 μM, 56 μM, 64 μM).
(§7) Preparation of the second buffer including the dead quenching dye—A 2 L bag of TALP, described in TABLE 1, was adjusted to pH 5.60 using HCl and then sterile filtered. […] For each of the four dyes tested (R40-red food dye No. 40, Y5—yellow food dye No. 5, Y6—yellow food dye No. 6 and PR—phenol red), an appropriate number of milligrams of each powder was placed in a Erlenmeyer Flask and then an exact amount of TALP pH 5.60 was added to create a 250 μM concentration of the dye. The result was a working TALP stock for each dye with a 100% (125 μM) relative amount of dye 50% relative (62.5 μM) and 20% relative (25 μM) solutions were made by dilution of 100% by TALP pH 5.60.
(§8) Single tubes of stained sperm at each of the three Hoechst 33342 concentrations were treated with TALP pH 5.60 which had no dead quenching dye present. Single tubes using Vitamin B12 (red colored chemical) with stock concentration of 15 μM (12% relative) were tested.
(§9) After this “bulk” staining for 60 minutes, 1 mL aliquots of stained sperm were combined with 1 mL aliquots of the second buffer including the dead quenching dyes. Samples sat for approximately 30 minutes at room temperature before being analyzed on a MoFlo SX (Beckman Coulter, USA) sperm sorting flow cytometer. Event rates were held as close to 13,000 as possible at the point of data acquisition.
(§10) The total number of individual treatments was 42 tubes, each containing 2 mL of stained sample. The alignment of the sorter was established using nuclei and confirmed with live sample from the 50% Red 40 series. Once good alignment was established, each tube was placed on the sorter long enough to establish a stabile dead gate population (about 30 seconds) and then a screenshot was taken and saved as a .jpeg image. This approach of rapidly documenting each sample is used to assure the most consistent alignment between all samples. Realignment of sorter will not cause differences in the intensities of live and dead gate populations but will cause differences in split quality.
(§11) FIG. 4 illustrates an example histogram. The ratio of dead gate intensity divided by live gate intensity is created by dividing the distance “A” by the distance “B” shown as a percentage. Lower values mean higher levels of quenching. The ratio of peak height divided by valley height is created by dividing the distance “C” by the distance “D”. A value of 1.00 means “no split” while higher values mean “better splits”.

[7] = tested on: sperm; assay: Split quality, height of peak divided by height of valley (Example 5); type: cell-based, Jersey bull; settings: Hoechst 16 μL/2 mL
Protocol: as §5, §6, §7, §8, §9, §10, §11

[8] = tested on: sperm; settings: as dead quenching dye; cited from earlier work
[9] = split enhancing dye 125 μM, 30 Min

Cc1c(C(=O)O)c(O)cc2c1C(=O)c1c(O)c(C3O[C@H](CO)[C@@H](O)[C@H](O)[C@H]3O)c(O)c(O)c1C2=O (stereo in doubt) [Red 4, carmine]
dead quenching capacity in combination with dead quenching dye [1]: significant increase in quenching the dead subpopulation
split enhancing effect compared to control [2]: provides distinct improvements at all concentrations and at all times

O=S(=O)([O-])c1ccc2c(N=Nc3ccc(S(=O)(=O)[O-])c4ccccc34)c(O)c(S(=O)(=O)[O-])cc2c1.[Na+].[Na+].[Na+] [Red 2]
dead quenching capacity in combination with dead quenching dye [1]: strong dead quenching capacity
split enhancing effect compared to control [2]: did not provide a split enhancing, or noise reducing effect
peak to valley ratio, Average 8 bulls ([2]; split enhancing dye 45 μM, 30 Min): 1.00
peak to valley ratio, Average 8 bulls [2, 9]: 1.00
peak to valley ratio, Average 8 bulls ([2]; split enhancing dye 125 μM, 45 Min): 1.00
peak to valley ratio, Average 8 bulls ([2]; split enhancing dye 125 μM, 60 Min): 1.00
peak to valley ratio, Average 8 bulls ([2]; split enhancing dye 125 μM, 75 Min): 1.00

O=C(O)c1ccccc1-c1c2cc(I)c(=O)c(I)c-2oc2c(I)c(O)c(I)cc12 [Red 3, 2-(6-Hydroxy-2,4,5,7-tetraiodo-3-oxo-xanthen-9-yl)benzoic acid]
effect of increasing concentration on split quality [3]: improved the split quality up to the concentration of 300 μM
split enhancing effect compared to control [2]: provided initial split enhancements at 15 μM and 45 μM
peak to valley ratio, Average 8 bulls [2, 9]: 1.00

O=C([O-])C1=NN(c2ccc(S(=O)(=O)[O-])cc2)C(=O)/C1=N/Nc1ccc(S(=O)(=O)[O-])cc1.[Na+].[Na+].[Na+] [Yellow 5, Trisodium (4E)-5-oxo-1-(4-sulfonatophenyl)-4-[(4-sulfonatophenyl)hydrazono]-3-pyrazolecarboxylate]
PV ([4]; dye 125 μM): 1.00
PV ([4]; dye 250 μM): 1.00
PV ([4]; dye 500 μM): 1.00
PV ([4]; dye 750 μM): 1.00
PV ([4]; dye 875 μM): 1.00
PV ([4]; dye 1250 μM): 1.00
amount of dye needed for a similar dead gate intensity ratio as red food dye No. 40 and yellow food dye No. 6 [5]: about five
Intensity ([5]; dye 125 μM, resulting pH 6.70): 63%
Intensity ([5]; dye 250 μM, resulting pH 6.70): 48%
Intensity ([5]; dye 500 μM, resulting pH 6.70): 43%
Intensity ([5]; dye 750 μM, resulting pH 6.70): <30%
Intensity ([5]; dye 875 μM, resulting pH 6.70): <30%
Intensity ([5]; dye 1250 μM, second buffer pH 5.60, resulting pH 6.70): <30%
Dead Intensity ([6]; dye 25 μM, Average over Hoechst levels): 90%
Dead Intensity ([6]; dye 25 μM, Hoechst 12 μL/2 mL): 90%
Dead Intensity ([6]; dye 25 μM, Hoechst 14 μL/2 mL): 90%
Dead Intensity ([6]; dye 25 μM, Hoechst 16 μL/2 mL): 90%
Dead Intensity ([6]; dye 62.5 μM, Average over Hoechst levels): 74%
Dead Intensity ([6]; dye 62.5 μM, Hoechst 12 μL/2 mL): 74%
Dead Intensity ([6]; dye 62.5 μM, Hoechst 14 μL/2 mL): 77%
Dead Intensity ([6]; dye 62.5 μM, Hoechst 16 μL/2 mL): 70%
Dead Intensity ([6]; dye 125 μM, Average over Hoechst levels): 57%
Dead Intensity ([6]; dye 125 μM, Hoechst 12 μL/2 mL): 54%
Dead Intensity ([6]; dye 125 μM, Hoechst 14 μL/2 mL): 63%
Dead Intensity ([6]; dye 125 μM, Hoechst 16 μL/2 mL): 55%
ability to create a dead gate population (ordering of the four dyes) ([6]; from dead and live intensity data of Table 13): better quenching properties than phenol red
Height of Peak/Height of Valley ([7]; dye 25 μM): 1.00
Height of Peak/Height of Valley ([7]; dye 62.5 μM): 1.00

CC[N+](C)(CC)CCC[n+]1c(-c2ccccc2)c2cc(N)ccc2c2ccc(N)cc21.[I-].[I-] [propidium iodine]
toxicity to sperm [8]: toxic to sperm
